Key:
Assay in all cases: biochemical
Design in all cases: Kinase selectivity panel of 81 human kinases, ADP-Glo or HTRF, per cent inhibition at 1 uM
TGFβR2 = molecular target: T1, TGFβR2 (Homo sapiens, UniProt P37173)
T1 construct: gene TGFBR2
Method: (§1) We next sought to determine the binding affinity of Zharp1-163 for RIPK1 or RIPK3 via a binding assay (Fig. 4A). […] Further, we evaluated the selectivity of Zharp1-163 against a panel of 81 kinases (at 1000 nM). […] To elucidate the binding interactions between Zharp1-163 and RIPK1 kinase, we conducted molecular docking studies using the RIPK1 crystal structure (PDB ID: 4NEU). The predicted binding conformations and interaction patterns between Zharp1-163 and the RIPK1 kinase domain are presented in Fig. 4D, E. Like the cocrystallized ligand in the 4NEU crystal complex, Zharp1-163 was predicted to act as a typical type II kinase inhibitor, interacting with the DLG (Asp156-Leu157-Gly158)-out conformation of RIPK1 (Fig. 4D, E). The 2-aminoimidazo [1,2-a] pyridine moiety of Zharp1-163 formed hydrogen bonds with Met95 in the hinge region. Furthermore, the carboxylate group of Zharp1-163 established hydrogen bonds with Asp156 in the DLG-out region. Additionally, the saturated ring of Zharp1-163 was deeply embedded within the hydrophobic allosteric pocket formed by the residues Met66, Met67, Leu70, Val76, Leu129, and Leu159, which is created by the DLG-out conformation in RIPK1 (Fig. 4D, E).  Fig. 4 Zharp1-163 is a selective inhibitor of RIPK1 kinase activity. A Binding affinity curve of Zharp1-163 with RIPK1 and RIPK3. B In an in vitro kinase activity assay, recombinant RIPK1 was incubated with Zharp1-163, after which RIPK1 kinase activity was determined by measuring ATP levels via a luciferase reporter assay system. […] Kinases are marked with dots, where the color of each kinase indicates the level of inhibition achieved by Zharp1-163. D Predicted binding conformation of Zharp1-163. E Schematic representation of the interaction patterns between Zharp1-163 and the key residues in the binding pocket of the RIPK1 kinase. […] NIH3T3-RIPK3 cells were pretreated with the indicated concentrations of Zharp1-163 for 2 h and then treated with AP20187 (100 nM) for 24 h. Cell viability was determined by measuring ATP levels. […] HeLa-MLKL (1–190) cells were pretreated with the indicated concentrations of Zharp1-163 for 2 h and subsequently treated with AP20187 (100 nM) for 24 h. Cell viability was determined by measuring ATP levels. H Viability of IFNβ-primed MEFs at 18 h after stimulation with poly(I:C) plus z-VAD and treatment with Zharp1-163 (10 μM). I Effects of different concentrations of Zharp1-163 on WT or RIPK1 KO HT-29 cells. Cell viability was determined by measuring ATP levels. The data are presented as the mean ± SD of triplicate samples.

PDGFRα = molecular target: T2, PDGFRα (Homo sapiens, UniProt P16234)
T2 construct: gene PDGFRA
T2 sequence (P16234 whole entry): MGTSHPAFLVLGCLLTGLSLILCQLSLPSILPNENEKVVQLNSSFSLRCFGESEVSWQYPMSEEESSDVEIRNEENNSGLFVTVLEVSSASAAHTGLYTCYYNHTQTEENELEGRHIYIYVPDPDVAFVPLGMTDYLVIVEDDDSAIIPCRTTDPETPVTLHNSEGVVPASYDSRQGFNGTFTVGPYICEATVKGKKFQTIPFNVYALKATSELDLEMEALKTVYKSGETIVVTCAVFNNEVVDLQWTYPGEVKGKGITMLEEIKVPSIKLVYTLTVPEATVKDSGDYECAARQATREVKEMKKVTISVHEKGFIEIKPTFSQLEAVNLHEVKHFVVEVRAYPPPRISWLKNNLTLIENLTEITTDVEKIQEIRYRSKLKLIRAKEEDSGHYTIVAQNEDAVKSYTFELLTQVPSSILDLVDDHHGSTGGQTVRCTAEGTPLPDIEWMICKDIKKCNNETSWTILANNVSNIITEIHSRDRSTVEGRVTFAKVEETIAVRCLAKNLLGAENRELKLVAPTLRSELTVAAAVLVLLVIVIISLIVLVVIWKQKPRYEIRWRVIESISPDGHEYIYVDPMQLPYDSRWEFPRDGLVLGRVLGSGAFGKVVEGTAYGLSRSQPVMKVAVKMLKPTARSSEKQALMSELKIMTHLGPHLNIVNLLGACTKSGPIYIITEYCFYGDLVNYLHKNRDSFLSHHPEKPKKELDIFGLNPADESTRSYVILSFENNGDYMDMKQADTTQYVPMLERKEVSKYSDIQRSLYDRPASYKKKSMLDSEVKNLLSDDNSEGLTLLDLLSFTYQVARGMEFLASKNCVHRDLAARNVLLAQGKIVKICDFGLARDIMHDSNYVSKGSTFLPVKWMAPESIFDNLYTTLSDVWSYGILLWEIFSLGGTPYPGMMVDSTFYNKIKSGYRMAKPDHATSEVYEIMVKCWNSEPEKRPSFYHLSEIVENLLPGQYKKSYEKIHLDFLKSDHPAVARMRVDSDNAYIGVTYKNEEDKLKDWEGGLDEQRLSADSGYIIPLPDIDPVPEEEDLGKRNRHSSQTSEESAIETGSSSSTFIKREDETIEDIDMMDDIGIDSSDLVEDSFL
Method: as §1

KDR = KDR (Homo sapiens, UniProt P35968)
Method: as §1

DYRK1B = DYRK1B (Homo sapiens, UniProt Q9Y463)
Method: as §1

TGFβR1 = molecular target: T3, TGFβR1 (Homo sapiens, UniProt P36897)
T3 construct: gene TGFBR1
Method: as §1

GSK3β = molecular target: T4, GSK3β (Homo sapiens, UniProt P49841)
T4 construct: gene GSK3B
Method: as §1

MLK1 = molecular target: T5, MLK1 (Homo sapiens, UniProt P80192)
T5 construct: gene MAP3K9
Method: as §1

NEK1 = NEK1 (Homo sapiens, UniProt Q96PY6)
NEK1, sequence (Q96PY6 whole entry): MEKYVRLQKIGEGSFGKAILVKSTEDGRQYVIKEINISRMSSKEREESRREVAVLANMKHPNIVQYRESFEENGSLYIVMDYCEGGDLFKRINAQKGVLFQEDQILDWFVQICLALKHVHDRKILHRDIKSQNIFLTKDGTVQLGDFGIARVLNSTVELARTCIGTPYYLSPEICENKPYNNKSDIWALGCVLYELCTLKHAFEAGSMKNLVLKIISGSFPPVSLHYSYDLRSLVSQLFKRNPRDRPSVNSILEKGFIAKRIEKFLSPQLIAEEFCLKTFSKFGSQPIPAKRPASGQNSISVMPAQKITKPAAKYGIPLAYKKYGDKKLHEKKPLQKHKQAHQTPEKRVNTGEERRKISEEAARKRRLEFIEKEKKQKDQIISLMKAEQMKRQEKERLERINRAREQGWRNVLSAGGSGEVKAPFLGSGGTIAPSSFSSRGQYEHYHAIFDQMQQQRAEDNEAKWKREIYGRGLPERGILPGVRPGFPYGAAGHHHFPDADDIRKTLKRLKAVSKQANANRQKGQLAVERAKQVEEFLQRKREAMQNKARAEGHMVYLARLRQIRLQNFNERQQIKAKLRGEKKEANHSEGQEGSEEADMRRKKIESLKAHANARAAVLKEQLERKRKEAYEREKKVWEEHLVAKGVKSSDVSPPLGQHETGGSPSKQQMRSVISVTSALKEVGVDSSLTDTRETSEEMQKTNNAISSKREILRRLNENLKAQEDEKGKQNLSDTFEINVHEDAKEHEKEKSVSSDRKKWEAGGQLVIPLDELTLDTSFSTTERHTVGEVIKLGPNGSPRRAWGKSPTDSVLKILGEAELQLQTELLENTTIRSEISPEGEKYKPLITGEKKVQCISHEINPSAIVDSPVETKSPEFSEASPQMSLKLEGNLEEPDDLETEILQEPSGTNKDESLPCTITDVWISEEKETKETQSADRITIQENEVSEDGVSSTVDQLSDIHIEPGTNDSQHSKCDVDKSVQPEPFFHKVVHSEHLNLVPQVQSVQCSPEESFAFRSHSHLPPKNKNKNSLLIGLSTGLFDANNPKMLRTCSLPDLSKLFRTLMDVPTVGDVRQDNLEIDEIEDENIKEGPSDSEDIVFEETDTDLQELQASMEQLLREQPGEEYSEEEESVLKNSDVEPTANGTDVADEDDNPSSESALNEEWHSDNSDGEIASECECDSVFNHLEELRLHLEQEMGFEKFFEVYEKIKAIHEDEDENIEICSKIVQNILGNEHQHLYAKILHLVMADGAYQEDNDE
Method: as §1

AKT1 = AKT1 (Homo sapiens, UniProt P31749)
Method: as §1

CLK1 = CLK1 (Homo sapiens, UniProt P49759)
CLK1, sequence (P49759 whole entry): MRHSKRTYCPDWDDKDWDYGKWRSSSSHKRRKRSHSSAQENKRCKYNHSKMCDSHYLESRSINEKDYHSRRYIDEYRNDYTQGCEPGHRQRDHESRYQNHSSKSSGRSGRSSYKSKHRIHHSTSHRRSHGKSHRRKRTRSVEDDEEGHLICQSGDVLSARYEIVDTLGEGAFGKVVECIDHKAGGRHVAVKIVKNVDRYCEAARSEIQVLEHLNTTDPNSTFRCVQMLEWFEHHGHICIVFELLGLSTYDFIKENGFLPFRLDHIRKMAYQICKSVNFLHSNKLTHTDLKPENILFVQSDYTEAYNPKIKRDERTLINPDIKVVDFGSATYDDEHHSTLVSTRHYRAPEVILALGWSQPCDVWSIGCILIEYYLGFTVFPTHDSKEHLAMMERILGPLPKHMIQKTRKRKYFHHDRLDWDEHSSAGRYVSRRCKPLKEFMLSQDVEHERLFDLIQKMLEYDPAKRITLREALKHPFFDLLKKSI
Method: as §1

MARK4 = MARK4 (Homo sapiens, UniProt Q96L34)
Method: as §1

MRCKβ = molecular target: T6, MRCKβ (Homo sapiens, UniProt Q9Y5S2)
T6 construct: gene CDC42BPB
T6 sequence (Q9Y5S2 whole entry): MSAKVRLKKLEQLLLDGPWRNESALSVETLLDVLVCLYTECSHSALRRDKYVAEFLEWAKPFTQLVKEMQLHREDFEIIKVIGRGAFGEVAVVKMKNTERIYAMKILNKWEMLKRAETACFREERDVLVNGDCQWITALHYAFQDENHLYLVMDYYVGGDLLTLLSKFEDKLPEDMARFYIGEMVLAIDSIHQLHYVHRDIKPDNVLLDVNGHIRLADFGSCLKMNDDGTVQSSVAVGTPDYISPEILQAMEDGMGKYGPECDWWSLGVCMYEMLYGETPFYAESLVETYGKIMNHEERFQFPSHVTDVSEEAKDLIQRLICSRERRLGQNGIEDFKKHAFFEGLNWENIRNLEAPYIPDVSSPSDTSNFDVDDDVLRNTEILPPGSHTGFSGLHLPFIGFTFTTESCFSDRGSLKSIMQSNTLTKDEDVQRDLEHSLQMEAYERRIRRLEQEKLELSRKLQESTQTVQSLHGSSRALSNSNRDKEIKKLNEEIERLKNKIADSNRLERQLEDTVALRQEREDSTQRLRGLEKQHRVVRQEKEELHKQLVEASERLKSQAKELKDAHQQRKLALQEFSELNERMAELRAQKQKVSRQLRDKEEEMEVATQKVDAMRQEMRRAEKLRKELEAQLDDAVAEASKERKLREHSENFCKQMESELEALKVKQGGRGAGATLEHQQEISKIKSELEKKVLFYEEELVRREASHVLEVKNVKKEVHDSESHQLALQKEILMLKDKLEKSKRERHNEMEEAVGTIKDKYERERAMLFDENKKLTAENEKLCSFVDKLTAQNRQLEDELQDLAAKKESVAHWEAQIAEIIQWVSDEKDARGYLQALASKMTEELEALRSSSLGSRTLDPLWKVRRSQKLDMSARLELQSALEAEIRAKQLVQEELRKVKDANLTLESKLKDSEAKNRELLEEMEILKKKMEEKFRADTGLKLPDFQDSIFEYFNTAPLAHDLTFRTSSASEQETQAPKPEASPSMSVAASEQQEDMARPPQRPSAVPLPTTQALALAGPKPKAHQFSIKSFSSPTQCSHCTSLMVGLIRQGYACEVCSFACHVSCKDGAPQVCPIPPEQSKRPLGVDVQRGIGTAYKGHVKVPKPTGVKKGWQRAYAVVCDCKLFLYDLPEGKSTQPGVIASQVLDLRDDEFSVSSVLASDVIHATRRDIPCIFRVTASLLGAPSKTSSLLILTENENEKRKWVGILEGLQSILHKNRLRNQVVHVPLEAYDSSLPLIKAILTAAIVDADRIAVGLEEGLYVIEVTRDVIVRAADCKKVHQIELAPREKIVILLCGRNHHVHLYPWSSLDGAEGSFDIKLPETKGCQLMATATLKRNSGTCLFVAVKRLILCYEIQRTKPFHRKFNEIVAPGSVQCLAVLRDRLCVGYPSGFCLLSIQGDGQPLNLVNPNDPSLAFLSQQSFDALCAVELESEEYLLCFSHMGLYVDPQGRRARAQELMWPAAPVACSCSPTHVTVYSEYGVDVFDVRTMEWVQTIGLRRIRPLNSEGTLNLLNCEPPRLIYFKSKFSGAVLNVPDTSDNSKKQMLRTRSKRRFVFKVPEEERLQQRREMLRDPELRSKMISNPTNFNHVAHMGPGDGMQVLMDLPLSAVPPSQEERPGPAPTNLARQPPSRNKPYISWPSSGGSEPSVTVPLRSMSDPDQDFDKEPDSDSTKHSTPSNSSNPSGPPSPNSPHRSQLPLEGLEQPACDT
Method: as §1

ALK4 = molecular target: T7, ALK4 (Homo sapiens, UniProt P36896)
T7 construct: gene ACVR1B
T7 sequence (P36896 whole entry): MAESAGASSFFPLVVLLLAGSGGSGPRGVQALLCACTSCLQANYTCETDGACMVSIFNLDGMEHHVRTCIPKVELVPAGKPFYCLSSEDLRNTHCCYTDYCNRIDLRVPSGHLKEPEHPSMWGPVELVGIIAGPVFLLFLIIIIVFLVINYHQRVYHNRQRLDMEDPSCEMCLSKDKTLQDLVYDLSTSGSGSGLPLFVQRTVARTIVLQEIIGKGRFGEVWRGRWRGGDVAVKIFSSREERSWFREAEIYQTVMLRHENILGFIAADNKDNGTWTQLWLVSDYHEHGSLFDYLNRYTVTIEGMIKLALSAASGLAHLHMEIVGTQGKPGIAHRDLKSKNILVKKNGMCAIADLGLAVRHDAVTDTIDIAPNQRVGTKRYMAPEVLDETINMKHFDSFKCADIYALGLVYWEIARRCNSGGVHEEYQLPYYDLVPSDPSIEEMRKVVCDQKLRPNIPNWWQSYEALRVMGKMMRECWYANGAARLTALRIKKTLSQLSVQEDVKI
Method: as §1

SRC = SRC (Homo sapiens, UniProt P12931)
Method: as §1

Nc1cn2cc(-c3cnc4c(c3)N(C(=O)OC3CCCCC3)CCO4)ccc2n1 [Zharp1-163]
inhibition at 1 µM (TGFβR2; replicate Data1): 7.99%
inhibition at 1 µM (TGFβR2; replicate Data2): 3.92%
inhibition at 1 µM (PDGFRα; replicate Data1): -2.74%
inhibition at 1 µM (PDGFRα; replicate Data2): 4.62%
inhibition at 1 µM (KDR; replicate Data1): -2.59%
inhibition at 1 µM (KDR; replicate Data2): -4.74%
inhibition at 1 µM (DYRK1B; replicate Data1): 16.6%
inhibition at 1 µM (DYRK1B; replicate Data2): 9.23%
inhibition at 1 µM (TGFβR1; replicate Data1): 7.16%
inhibition at 1 µM (TGFβR1; replicate Data2): 7.76%
inhibition at 1 µM (GSK3β; replicate Data1): 11.8%
inhibition at 1 µM (GSK3β; replicate Data2): -2.82%
inhibition at 1 µM (MLK1; replicate Data1): 21.2%
inhibition at 1 µM (MLK1; replicate Data2): 32.7%
inhibition at 1 µM (NEK1; replicate Data1): 4.63%
inhibition at 1 µM (NEK1; replicate Data2): 13.4%
inhibition at 1 µM (AKT1; replicate Data1): -1.95%
inhibition at 1 µM (AKT1; replicate Data2): 6.27%
inhibition at 1 µM (CLK1; replicate Data1): 38.1%
inhibition at 1 µM (CLK1; replicate Data2): 33.2%
inhibition at 1 µM (MARK4; replicate Data1): 14.3%
inhibition at 1 µM (MARK4; replicate Data2): 0.49%
inhibition at 1 µM (MRCKβ; replicate Data1): -0.71%
inhibition at 1 µM (MRCKβ; replicate Data2): 4.66%
inhibition at 1 µM (ALK4; replicate Data1): -1.47%
inhibition at 1 µM (ALK4; replicate Data2): -2.74%
inhibition at 1 µM (SRC; replicate Data1): -5.44%
inhibition at 1 µM (SRC; replicate Data2): -0.43%

Source: paper PMC12394658, “Discovery of Zharp1-163 as a dual inhibitor of ferroptosis and necroptosis for the treatment of inflammatory disorders and kidney injury” (Cell Death Discovery, 2025)
